One data set addresses T1, neutrophil elastase (Homo sapiens, UniProt P08246).
T1 sequence (P08246 30-267): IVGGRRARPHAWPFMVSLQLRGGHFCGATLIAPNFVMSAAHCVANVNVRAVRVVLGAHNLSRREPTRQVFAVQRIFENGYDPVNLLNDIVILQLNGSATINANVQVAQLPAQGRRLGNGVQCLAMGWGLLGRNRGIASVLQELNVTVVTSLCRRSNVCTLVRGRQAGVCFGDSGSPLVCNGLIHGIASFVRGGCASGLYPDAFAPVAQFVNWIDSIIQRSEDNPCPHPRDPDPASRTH
The data set can be described thus: Neutrophil elastase assay of ADCs. It is filed as biochemical. Conditions: 8-load ADC, 37 C, 3 h, pH 7.5, FIG. 6A. The procedure: To a mixture of 8-load ADC (5 ug), buffer (100 mM tris, 75 mM NaCl, pH 7.5; final concentration), and neutrophil elastase (100 ng) was added water to 20 uL. The reaction was incubated at 37 C for 3 h and then immediately analyzed by a QToF mass spectrometer.

For data set [1], the system named is non-small-cell lung cancer cells (Calu1). The experiment in a line: In vitro potency (CellTiter-Glo, 96 h), Calu1. The format is cell-based. Particulars: Homo sapiens, Calu-1, 96 h, read-out: Calu1 IC50. The gist of the method: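 Following a 24 h seeding period in 20% FBS-supplemented RPMI 1640, log-phase cells receive graded concentrations of conjugate. Incubation runs for 4 days at 37 °C, after which luminescence is recorded and IC50 calculated in ng/mL.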
For orientation: ATP-based viability assays read luminescence as a measure of living cells.

Data set [2] deals with acute myeloid leukemia cells (MOLM-13). The data set can be described thus: In vitro potency (CellTiter-Glo, 96 h), MOLM-13. It is filed as cell-based. Conditions: Homo sapiens, MOLM-13, 96 h. In short, it runs like this: (§1)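 Antibody-drug conjugates, prepared as dilution series in culture medium, were added to cells seeded a day earlier in RPMI 1640 supplemented with 20% FBS. After four days at 37 °C, luminescence measured growth inhibition.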

Data set [3] deals with renal carcinoma cells (786-O). The experiment in a line: In vitro potency (CellTiter-Glo, 96 h), 786-O. It is filed as cell-based. Conditions: Homo sapiens, 786-0, 96 h, read-out: IC50 786-O, camptothecin drugs, Table 13; CellTiter-Glo after 96 h exposure. In short, it runs like this: (§2)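 IC50 (ng/mL or nmol/L) derived from CellTiter-Glo luminescence after 96 h exposure at 37 °C to serial dilutions of ADC or CPT free drug. Log-phase cells had been plated 24 h beforehand in RPMI 1640 containing 20% FBS.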

Data set [4] concerns pancreatic cancer cells (BxPC3). The experiment in a line: In vitro potency (CellTiter-Glo, 96 h), BxPC3. It is filed as cell-based. Conditions: Homo sapiens, BXPC-3, 96 h, read-out: IC50 BxPC3, camptothecin drugs, Table 13; CellTiter-Glo after 96 h exposure. In short, it runs like this: as §1
Data set [5] relates to Hodgkin's lymphoma cells (L540cy). The experiment in a line: In vitro potency (CellTiter-Glo, 96 h), L540cy. Conditions: read-out: IC50 L540cy, camptothecin drugs, Table 13, CellTiter-Glo after 96 h exposure. It is filed as cell-based. In short, it runs like this: as §2
The subject of data set [6] is B-lymphocyte cancer cells (SU-DHL4). The data set can be described thus: In vitro potency (CellTiter-Glo, 96 h), SU-DHL-4. Particulars: Homo sapiens, SU-DHL-4, 96 h, read-out: IC50 SU-DHL-4, camptothecin drugs, Table 13; CellTiter-Glo after 96 h exposure. It is filed as cell-based. The gist of the method: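 Four-day continuous exposure at 37 °C to serially diluted ADC or free camptothecin payload, in RPMI 1640 with 20% FBS after 24 h pre-plating. Luminescent signal gave IC50 (ng/mL; nmol/L).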

Data set [7] concerns multiple myeloma cells (MM.1R). The experiment in a line: In vitro potency (CellTiter-Glo, 96 h), MM.1R. Particulars: camptothecin drugs, Table 13, CellTiter-Glo after 96 h exposure. It is filed as cell-based. On the procedure:
(§3) In vitro potency was assessed on multiple cancer cell lines. All cell lines were authenticated by STR profiling at IDEXX Bioresearch and cultured for no more than 2 months after resuscitation. Cells cultured in log-phase growth were seeded for 24 hours in 96-well plates containing […] RPMI 1640 supplemented with 20% FBS. Following addition of test articles, cells were incubated with test articles for 4 days at 37 0° C. After 96 hours, growth inhibition was assessed by CellTiterGlo® (Promega, Madison, WI) and luminescence was measured on a plate reader.
(§4) Cell viability was determined by CellTiter-Glo staining after 96 h exposure to the compound. ND=Not Determined. The cancer cell lines tested are renal carcinoma cells (786-0), melanoma cells (A2058), pancreatic cancer cells (BxPC3), non-small-cell lung cancer cells (Calu1), anaplastic large cell lymphoma cells (DEL, DELBVR, Karpas299), Hodgkin's lymphoma cells (L540cy), (Ls 174T), breast cancer cells (MDA-MB-231), acute myeloid leukemia cells (MOLM-13), B-lymphocyte cancer cells (SU-DHL4), multiple myeloma cells (MM.1R), (U266), and melanoma cells (SK-MEL-5).
as §3, with “FBS. Serial dilutions of antibody-drug conjugates in cell culture media were prepared at 4× working concentrations, and 50 μL of each dilution was added to the 96-well plates.” for “FBS.”, “37°” for “37 0°”
(§5) In vitro potency was assessed on multiple cancer cell lines. […] After 96 hours, growth inhibition was assessed by CellTiterGlo® (Promega, Madison, WI) and luminescence was measured on a plate reader.

Another data set has as its system U266 cells. The experiment in a line: In vitro potency (CellTiter-Glo, 96 h), U266. The format is cell-based. Particulars: Homo sapiens, U-266; camptothecin drugs, Table 13; CellTiter-Glo after 96 h exposure. The procedure:
as §3, §4
as §3, with “FBS. Serial dilutions of antibody-drug conjugates in cell culture media were prepared at 4× working concentrations, and 50 μL of each dilution was added to the 96-well plates.” for “FBS.”, “37°” for “37 0°”
as §5

For data set [8], the system named is melanoma cells (SK-MEL-5). The experiment in a line: In vitro potency (CellTiter-Glo, 96 h), SK-MEL-5. It is filed as cell-based. Conditions: Homo sapiens, camptothecin drugs, Table 13, CellTiter-Glo after 96 h exposure. On the procedure:
as §3, §4
as §3, with “FBS. Serial dilutions of antibody-drug conjugates in cell culture media were prepared at 4× working concentrations, and 50 μL of each dilution was added to the 96-well plates.” for “FBS.”, “37°” for “37 0°”
as §5

Data set [9] concerns h00-37, non-binding control antibody h00 conjugated with mp-val-cit-PABC-MMAE (compound 37).
In data set [10] the test system is h00-5, non-binding control antibody h00 conjugated with mp-D-Leu-Ala-Glu-PABC-MMAE (Drug Linker compound 5).
Data set [11] concerns h00-7, non-binding control antibody h00 conjugated with mp-Leu-Ala-Glu-PABC-MMAE (Drug Linker compound 7).
In data set [12] the test system is HPAFII cell line (Ag1 upregulated). The data set can be described thus: In vitro cytotoxicity of Ag1 ADCs, HPAFII cells. The format is cell-based. Conditions: in words, Tables 5a and 5b. On the procedure:
In vitro cytotoxicity. The cytotoxicity of a tripeptide-based Antibody Drug Conjugate was measured by a cell proliferation assay employing the protocol described in Promega Corp. Technical Bulletin TB288; and Mendoza et al., 2002, Cancer Res. 62:5485-5488), the methods of which are specifically incorporated by reference herein. Briefly, an aliquot of 40 μl of cell culture containing about 400 cells in medium is deposited in each well of a 384-well, opaque-walled plate. A 10 μL aliquot of free drug or Ligand-Drug Conjugate is added to the experimental wells and incubated for 96 h and are then equilibrated to room temperature for approximately 30 minutes whereupon a volume of CellTiter-Glo™ reagent equal to the volume of cell culture medium present in each well is added. The contents are mixed for 2 minutes on an orbital shaker to induce cell lysis and the plate is incubated at room temperature for 10 minutes to stabilize the luminescence signal for recordation.
The italicized values in Tables 5, 5a, and 5b indicate the percentage of cells remaining after 96 hr incubation at the maximum concentration of drug added. For convenience the numbering for the library members of Tables 5 and 5A are retained for the corresponding Drug linker compounds that are incorporated into the ADC of Tables 5, 5a, and 5b.

[13] abbreviates: read-out: IC50 MOLM-13, camptothecin drugs, Table 13, CellTiter-Glo after 96 h exposure.

Read-outs that look alike come from different tables or passages of the source.

The text below walks through data of patent publication US20240207427A1, “SELECTIVE DRUG RELEASE FROM INTERNALIZED CONJUGATES OF BIOLOGICALLY ACTIVE COMPOUNDS” (priority 2021, published 2024).

Take `CC[C@@]1(O)C(=O)OCc2c1cc1n(c2=O)Cc2c-1nc1cc3c(cc1c2CN)CC=C3` [Compound 5]: at neutrophil elastase, the “percentage of drug cleaved from the heavy chain by neutrophil elastase” value is reported as “lower than that found for non-targeted ADC 37”. The IC50 (commonly the midpoint of a concentration-inhibition curve) was 129 nM in [1] and 258 nM in data set [2] (read-out: MOLM-13 IC50, Table 28, CPT free drugs, acute myeloid leukemia cells MOLM-13, 96 h, CellTiter-Glo).
With `CC[C@@]1(O)C(=O)OCc2c1cc1n(c2=O)Cc2c-1nc1cc3c(cc1c2CNc1ccccc1N)OCO3` [Compound 7ac], the IC50 was found to be 2 nM in data set [3]; 5 nM in [4]; 2 nM in data set [5]; 1 nM in data set [2] (setting [13]); 1 nM in data set [6]; 2 nM in [7]. Further, the half-maximal inhibitory concentration (IC50) in the data set with U266 cells was determined as 8 nM; in data set [8], 4 nM.
For neutrophil elastase, the entries for the “percentage of drug cleaved from the heavy chain (QToF mass spectrometry after 3 h at 37 C)” value in data set [9], in [10] and in data set [11] were “percentage of drug cleaved from the heavy chain of non-targeted ADC 5 in vitro by neutrophil elastase is lower than that found for non-targeted ADC 37”, “no proteolosis of h00-5 by neutrophil elastase was observed” and “the h00-5 conjugate ... has its heavy chain cleaved by neutrophil elastase to a significantly lower extent than h00-7”, respectively.
With `CC[C@@]1(O)C(=O)OCc2c1cc1n(c2=O)Cc2c-1nc1cc3c(cc1c2CNc1cccc(N)c1)OCO3` [Compound 7ad], the half-inhibitory concentration (IC50) in data set [3] was determined as 5 nM; in data set [4], 6 nM; in [5] it was 2 nM; in [2] (setting [13]), 1 nM; in data set [6] it was 2 nM; in data set [7], 2 nM. Also, the IC50 with U266 cells came to 8 nM; in data set [8], 7 nM.
`CC[C@@]1(O)C(=O)OCc2c1cc1n(c2=O)Cc2c-1nc1cc3c(cc1c2CN(C)CCCN)OCO3` [Compound 8, (5S)-14-[[3-aminopropyl(methyl)amino]methyl]-5-ethyl-S-hydroxy-7,18,20-trioxa-11,24-diazahexacyclo [11.11.0.02,11.04,9.015,23.017,21]tetracosa-1(13),2,4(9),14,16,21,23-heptaene-6,10-dione; 2,2,2-trifluoroacetic acid]: in [12], the “cytotoxicity compared with comparator dipeptide-based ADC (1)” value is recorded as “less cytotoxic” and the “efficacy compared with comparator dipeptide-based ADC (1)” value is given as “similarly efficacious”.
As for `CC[C@@]1(O)C(=O)OCc2c1cc1n(c2=O)Cc2c-1nc1cc3c(cc1c2CNc1ccc(N)cc1)OCO3` [Compound 7ab], the IC50 amounted to 1 nM in data set [3]; 1 nM in data set [4]; 0.4 nM in [5]; 0.3 nM in data set [2] (setting [13]); 0.4 nM in data set [6]; 0.4 nM in data set [7]. Moreover, the half-maximal inhibitory concentration (IC50) worked out at 2 nM in the data set with U266 cells and 1 nM in [8].
For the compound Cathepsin B, the “percentage of drug cleaved from the heavy chain (QToF mass spectrometry after 3 h at 37 C, pH 4.5)” value in data set [9] was “percentage of drug cleaved from the heavy chain of non-targeted ADCs 5 and 7 in vitro by Cathepsin B is similar to that found for non-targeted ADC 37”; in data set [10], “percentage of drug cleaved from the heavy chain of non-targeted ADCs 5 and 7 in vitro by Cathepsin B is similar to that found for non-targeted ADC 37”; in data set [11] it was “percentage of drug cleaved from the heavy chain of non-targeted ADCs 5 and 7 in vitro by Cathepsin B is similar to that found for non-targeted ADC 37”.
